Data taken from PubChem BioAssay (NCI).
Several values for one entry are separate records, joined by “and”; a condition that tells them apart may be missing. Equal values may be shown once.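 Growth conditions: 96-well plates. Treatment: test compound, 48 hours, 5 concentrations. Analysis: linear interpolation between bracketing concentrations; unreached endpoints set to highest concentration. GI50 marks 50% less growth. TGI: total growth inhibition.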

Legend:
Assay in all cases: growth of human tumour cells (NCI), 48 h
A498 renal = test system: A498 renal
BT-549 breast = test system: BT-549 breast
CCRF-CEM leukemia = test system: CCRF-CEM leukemia
HCC-2998 colon = test system: HCC-2998 colon
HCT-116 colon = test system: HCT-116 colon
HCT-15 colon = test system: HCT-15 colon
SK-MEL-5 melanoma = test system: SK-MEL-5 melanoma
SR leukemia = test system: SR leukemia
UACC-62 melanoma = test system: UACC-62 melanoma
UO-31 renal = test system: UO-31 renal

## C[C@@H](Oc1cc(-c2cnn(C3CC4(CCNCC4)C3)c2)cnc1N)c1c(F)ccc(Cl)c1Cl
A498 renal
  GI50: 0.488 µM
  TGI: 2.35 µM
BT-549 breast
  GI50: 1.75 µM
  TGI: 3.78 µM
CCRF-CEM leukemia
  GI50: 1.31 µM
  TGI: 6.31 µM
HCC-2998 colon
  GI50: 1.42 µM
  TGI: 3.1 µM
HCT-116 colon
  GI50: 0.671 µM
  TGI: 2.65 µM
HCT-15 colon
  GI50: 1.38 µM
  TGI: 3.5 µM
SK-MEL-5 melanoma
  GI50: 1.47 µM
  TGI: 2.85 µM
SR leukemia
  GI50: 0.0467 µM
  TGI: 1.53 µM
UACC-62 melanoma
  GI50: 1.55 µM
  TGI: 3.16 µM
UO-31 renal
  GI50: 1.89 µM
  TGI: 4.28 µM

## C[C@]12CC[C@@H]3c4ccc(OCC(=O)O)cc4CC[C@H]3[C@@H]1CCC2=O
A498 renal
  TGI: > 100 µM
BT-549 breast
  TGI: > 100 µM
CCRF-CEM leukemia
  TGI: 4.48 µM
HCT-116 colon
  TGI: > 100 µM
HCT-15 colon
  TGI: > 100 µM
SK-MEL-5 melanoma
  TGI: > 100 µM
SR leukemia
  TGI: > 100 µM
UACC-62 melanoma
  TGI: > 100 µM
UO-31 renal
  TGI: > 100 µM

## COc1cc(-c2ccc(-[n+]3nc(-c4ccc([N+](=O)[O-])cc4)nn3-c3ccc([N+](=O)[O-])cc3)c(OC)c2)ccc1-[n+]1nc(-c2ccc([N+](=O)[O-])cc2)nn1-c1ccc([N+](=O)[O-])cc1
A498 renal
  GI50: 2.99 µM
  TGI: 13.9 µM
BT-549 breast
  GI50: 6.21 µM
  TGI: 70.8 µM
CCRF-CEM leukemia
  GI50: 1.08 µM
  TGI: > 100 µM
HCC-2998 colon
  GI50: 9.21 µM
  TGI: 29.3 µM
HCT-116 colon
  GI50: 3.38 µM
  TGI: > 31.6 µM
HCT-15 colon
  GI50: 6.17 µM
  TGI: 49.5 µM
SK-MEL-5 melanoma
  GI50: 4.28 µM
  TGI: 23.6 µM
SR leukemia
  GI50: 30.4 µM
  TGI: > 100 µM
UACC-62 melanoma
  GI50: 22 µM
  TGI: > 82.8 µM
UO-31 renal
  GI50: 6.28 µM
  TGI: 27.8 µM

## C=C1C(=O)O[C@H]2[C@H]1CC/C(Cn1cc(Cn3ccc4cc(Cl)ccc43)nn1)=C\CC[C@@]1(C)O[C@@H]21
A498 renal
  GI50: 3.39 µM
  TGI: 11.7 µM
BT-549 breast
  GI50: 1.61 µM
  TGI: 3.3 µM
CCRF-CEM leukemia
  GI50: 0.338 µM
  TGI: 1.18 µM
HCC-2998 colon
  GI50: 1.98 µM
  TGI: 3.92 µM
HCT-116 colon
  GI50: 1.5 µM
  TGI: 3.12 µM
HCT-15 colon
  GI50: 1.14 µM
  TGI: 2.66 µM
SK-MEL-5 melanoma
  GI50: 1.73 µM
  TGI: 3.32 µM
SR leukemia
  GI50: 0.279 µM
  TGI: 1.25 µM
UACC-62 melanoma
  GI50: 1.41 µM
  TGI: 2.78 µM
UO-31 renal
  GI50: 1.09 µM
  TGI: 2.29 µM

## O=c1[nH]cnc2c1nnn2[C@@H]1O[C@H](CO)[C@@H](O)[C@H]1O
A498 renal
  GI50: 2.51 µM
  TGI: 57.4 µM
BT-549 breast
  GI50: 9.81 µM
  TGI: > 100 µM
CCRF-CEM leukemia
  GI50: 1.34 µM
  TGI: > 100 µM
HCC-2998 colon
  GI50: 4.33 µM
  TGI: > 100 µM
HCT-116 colon
  GI50: 3.93 µM
  TGI: > 100 µM
HCT-15 colon
  GI50: 2.8 µM
  TGI: > 100 µM
SK-MEL-5 melanoma
  GI50: 13.1 µM
  TGI: > 100 µM
SR leukemia
  GI50: 4.77 µM
  TGI: > 100 µM
UACC-62 melanoma
  GI50: 5.75 µM
  TGI: 84.4 µM
UO-31 renal
  GI50: 4.46 µM
  TGI: > 100 µM

## CC1=Cc2cc3[n-]c(cc4nc(cc5[n-]c(cc1n2)c(C)c5CCC(=O)O)C(CCC(=O)O)=C4C)cc3C.[Cu+2]
A498 renal
  GI50: > 1 µM and 16.2 µM
  TGI: > 1 µM and 36.5 µM
BT-549 breast
  GI50: 14.5 µM
  TGI: 27.8 µM
CCRF-CEM leukemia
  GI50: > 1 µM and 12.1 µM
  TGI: > 68.5 µM
HCC-2998 colon
  GI50: > 100 µM
  TGI: > 100 µM
HCT-116 colon
  GI50: > 1 µM and 33.4 µM
  TGI: > 100 µM
HCT-15 colon
  GI50: > 1 µM and 52.7 µM
  TGI: > 86.7 µM
SK-MEL-5 melanoma
  GI50: > 1 µM and 14.5 µM
  TGI: > 1 µM and 31.5 µM
SR leukemia
  GI50: > 1 µM and 45.1 µM
  TGI: > 75.7 µM
UACC-62 melanoma
  GI50: > 1 µM and 6.04 µM
  TGI: > 1 µM and 15.8 µM
UO-31 renal
  GI50: > 1 µM and 38.3 µM
  TGI: > 92.7 µM
